Results reported in patent US8609719B2, “Propargylated aminoindans, processes for preparation, and uses thereof” (priority 2006, dated 2013).
Structures can show the parent of a compound that is named as a salt. Where two headings read alike, the source gives them in different places.

Columns and labels:
Recombinant human AChE = target: T1, Recombinant human AChE (Homo sapiens, UniProt P22303); assay: Inhibition of acetylcholinesterase activity in vitro (Ellman, stopped time assay); format: biochemical; parameters: ki (bimolecular rate constant): unit not given here
T1 construct: purchased Sigma-Aldrich Israel C-1682
Procedure: Recombinant human AChE (C-1682), acetylthiocholine iodide (AcTh, A5771), bovine serum albumin (BSA, A-2153), and 5,5′-dithiobis(2-nitrobenzoic acid) (DTNB, D8130) were obtained from Sigma-Aldrich Israel. […] AChE was dissolved in phosphate buffer pH 8.0 containing 0.01% sodium azide NaAz and 1 mM EDTA and diluted to give a concentration of 15 units/ml. This solution was divided into aliquots of 0.5 ml, which were stored at −70° C. until use.
The inhibitory activity against AChE was determined by the method of Ellmann et al. (Biochemical Pharmacology, 1961 (7) 88-95) using AcTh as a substrate. To characterize the carbamoylation step, a traditional stopped time assay was performed, in which AChE was incubated at 37° C. with a minimum of 5 different concentrations of inhibitor in the assay buffer, and aliquots were transferred to an ELISA multiscan microplate reader (Labsystems) at various times for the determination of residual AChE activity, with Ascent PC software. The rate of reaction was measured at 412λ at 37° C. in 0.2 ml wells containing AChE 0.023 units per ml, DTNB 0.4-0.5 mM, AcTh 0.50 or 1 mM and BSA (0.05%) in 50 mM phosphate buffer as described above. Measurements were made every 5 min for up to 5 hours.
The inhibition of AChE by carbamates involves the formation of a reversible complex (EOH•CX), followed by carbamoylation of the enzyme to form (EOC) and a leaving group (HX). The carbamoylated enzyme is then hydrolyzed by water to regenerate the free enzyme (EOH).
The formation of the reversible complex is represented by the equilibrium constant: KD. For the carbamoylation phase of the inhibition process the unimolecular rate constant is represented by kmax, and the bimolecular rate constant by ki.

[1] = Pharmacokinetic analysis of ladostigil and metabolites in Alzheimer's disease patients; conditions: human, in vivo, 100 mg; for Cmax / AUC / AUC(0-t): after ladostigil tartrate 100 mg twice daily; for concentration at 12 h: mean concentration at pre-dose, 12 hours after the previous dose of ladostigil tartrate; for AUC: AUC (M)
MAO-A = target: T2, MAO-A (Rattus norvegicus, UniProt P21396); assay: Inhibition of MAO activity in vitro (5-HT substrate); format: biochemical
T2 construct: from tissue; host or cells: brain, liver and intestine (duodenum) of dosed rats
T2 sequence (P21396 1-526): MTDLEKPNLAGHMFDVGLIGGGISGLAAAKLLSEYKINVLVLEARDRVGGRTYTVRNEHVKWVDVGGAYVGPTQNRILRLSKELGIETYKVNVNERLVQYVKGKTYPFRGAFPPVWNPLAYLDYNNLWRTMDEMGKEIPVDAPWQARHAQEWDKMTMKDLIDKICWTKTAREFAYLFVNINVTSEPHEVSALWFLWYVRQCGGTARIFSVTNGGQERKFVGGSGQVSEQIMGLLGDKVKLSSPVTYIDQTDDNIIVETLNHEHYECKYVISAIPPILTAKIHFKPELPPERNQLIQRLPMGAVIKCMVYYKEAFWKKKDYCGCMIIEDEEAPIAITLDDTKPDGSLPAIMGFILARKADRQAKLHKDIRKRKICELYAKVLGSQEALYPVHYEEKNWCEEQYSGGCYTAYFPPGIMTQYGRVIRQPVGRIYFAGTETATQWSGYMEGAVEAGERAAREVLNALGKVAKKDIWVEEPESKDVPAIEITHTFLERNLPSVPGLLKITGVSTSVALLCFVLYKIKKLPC
Procedure: The MAO enzyme source was a homogenate of rat brain in 0.3M sucrose. The homogenate was diluted appropriately, and pre-incubated with serial dilutions of test compounds—diluted in phosphate buffer containing clogyline when 2-phenylethylamine (PEA) is the substrate, and diluted in phosphate buffer containing selegiline when 5-hydroxytryptamine (5-HT) is the substrate—for 60 minutes at 37° C. 14C-Labeled substrates (PEA for MAO-B determination and 5-HT for MAO-A determination) were then added, and the incubation continued for a further 20 minutes (PEA) or 30 minutes (5-HT). Substrate concentrations used were 10 μM (PEA) and 100 uM (5-HT). Enzyme concentration was chosen so that not more than 10% of the substrate was metabolized during the course of the reaction. Deaminated products were extracted into toluene-ethyl acetate (1:1 v/v) containing 0.4% (w/v) 2,5-diphenyloxazole (ppo) prior to determination by liquid scintillation counting. Radioactivity in the eluate indicated the production of neutral and acidic metabolites formed as a result of MAO activity. Activity of MAO in the sample was expressed as a percentage of control activity in the absence of inhibitor after subtraction of appropriate blank values. The activity determined using PEA as substrate is referred to as MAO-B, and that determined using 5-HT as MAO-A.
Concentrations of each inhibitor producing 50% inhibition of substrate metabolism (IC50) were calculated from the inhibition curves, and are shown in Table 1.

[2] = both, Cmax (M), mean, mean of patients, maintenance analysis Week 4
[3] = both, Cmax (T), mean, mean of patients, termination analysis Week 9
[4] = both, Cmin (M), mean of patients, maintenance analysis Week 4
[5] = both, Cmin (T), mean of patients, termination analysis Week 9
[6] = Patient 1, maintenance analysis Week 4
[7] = Patient 2, maintenance analysis Week 4
[8] = Patient 3, maintenance analysis Week 4
[9] = Patient 4, maintenance analysis Week 4
[10] = Patient 5, maintenance analysis Week 4
[11] = Patient 6, maintenance analysis Week 4
[12] = Patient 7, maintenance analysis Week 4
[13] = Patient 8, maintenance analysis Week 4
[14] = Patient 1, termination analysis Week 9
[15] = Patient 2, termination analysis Week 9
[16] = Patient 3, termination analysis Week 9
[17] = Patient 4, termination analysis Week 9
[18] = Patient 5, termination analysis Week 9
[19] = Patient 6, termination analysis Week 9
[20] = Patient 7, termination analysis Week 9
[21] = Patient 8, termination analysis Week 9
[22] = Cmax (M), Patient 1, maintenance analysis Week 4
[23] = Cmax (M), Patient 2, maintenance analysis Week 4
[24] = Cmax (M), Patient 3, maintenance analysis Week 4
[25] = Cmax (M), Patient 4, maintenance analysis Week 4
[26] = Cmax (M), Patient 5, maintenance analysis Week 4
[27] = Cmax (M), Patient 6, maintenance analysis Week 4
[28] = Cmax (M), Patient 7, maintenance analysis Week 4
[29] = Cmax (M), Patient 8, maintenance analysis Week 4
[30] = Cmax (T), Patient 1, termination analysis Week 9
[31] = Cmax (T), Patient 2, termination analysis Week 9
[32] = Cmax (T), Patient 3, termination analysis Week 9
[33] = Cmax (T), Patient 4, termination analysis Week 9
[34] = Cmax (T), Patient 5, termination analysis Week 9
[35] = Cmax (T), Patient 6, termination analysis Week 9
[36] = Cmax (T), Patient 7, termination analysis Week 9
[37] = Cmax (T), Patient 8, termination analysis Week 9

T1 sequence (P22303 32-614): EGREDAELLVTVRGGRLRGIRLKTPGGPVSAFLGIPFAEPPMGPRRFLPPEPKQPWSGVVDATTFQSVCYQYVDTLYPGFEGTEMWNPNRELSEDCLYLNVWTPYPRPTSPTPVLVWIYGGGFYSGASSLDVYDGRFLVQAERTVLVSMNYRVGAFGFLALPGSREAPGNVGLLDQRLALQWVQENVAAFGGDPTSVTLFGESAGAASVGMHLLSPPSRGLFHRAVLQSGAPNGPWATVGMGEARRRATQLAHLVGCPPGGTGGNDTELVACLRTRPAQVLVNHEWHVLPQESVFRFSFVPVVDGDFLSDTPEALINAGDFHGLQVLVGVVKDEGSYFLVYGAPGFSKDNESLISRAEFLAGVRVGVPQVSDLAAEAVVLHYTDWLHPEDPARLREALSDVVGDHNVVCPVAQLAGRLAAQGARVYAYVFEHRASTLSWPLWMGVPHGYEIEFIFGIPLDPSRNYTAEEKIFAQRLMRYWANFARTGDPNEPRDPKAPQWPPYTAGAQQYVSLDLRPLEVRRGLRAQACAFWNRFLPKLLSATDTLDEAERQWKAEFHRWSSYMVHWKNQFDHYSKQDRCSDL

For `C#CCN[C@@H]1CCc2ccc(OC(=O)N(CC)CO)cc21` [R-HCPAI, Ethyl-hydroxymethyl-carbamic acid 3-R-(prop-2-ynylamino)-indan-5-yl ester fumarate (2:1)], the “inhibition of acetylcholinesterase, in words” value (Recombinant human AChE) was “weak inhibitor”, the “ki (bimolecular rate constant)” value (Recombinant human AChE; AChE, 37° C.) was 0.106 ± 0.008 and the “kmax (unimolecular carbamoylation rate constant)” value (Recombinant human AChE; AChE, 37° C.) was 0.033 min⁻¹. It also gave a Kd (Recombinant human AChE; AChE, 37° C., read-out: KD (equilibrium constant of reversible complex)) of 306 µM, a half-life ([1]; both) of 1.03 h and a Cmax [1, 2] of 3.63e-06 M. The Cmax [1, 3] was 3.3e-06 M, the concentration at 12 h [1, 4] was 2.32e-08 M and the concentration at 12 h [1, 5] was 1.37e-08 M. The AUC [1, 6] was 1660 ng·h/mL, the AUC [1, 7] was 600 ng·h/mL and the AUC [1, 8] was 2290 ng·h/mL. It also gave an AUC [1, 9] of 2150 ng·h/mL, an AUC [1, 10] of 1700 ng·h/mL and an AUC [1, 11] of 1890 ng·h/mL. It also gave an AUC [1, 12] of 519 ng·h/mL, an AUC [1, 13] of 1510 ng·h/mL and an AUC(0-t) [1, 14] of 1300 ng·h/mL. It also gave an AUC(0-t) [1, 15] of 3100 ng·h/mL, an AUC(0-t) [1, 16] of 2520 ng·h/mL and an AUC(0-t) [1, 17] of 1740 ng·h/mL. For the same molecule, the AUC(0-t) [1, 18] was 1650 ng·h/mL, the AUC(0-t) [1, 19] was 2400 ng·h/mL and the AUC(0-t) [1, 20] was 1040 ng·h/mL. It also gave an AUC(0-t) [1, 21] of 1340 ng·h/mL, a Cmax [1, 22] of 3.6e-06 M and a Cmax [1, 23] of 1.5e-06 M. For the same molecule, the Cmax [1, 24] was 3.7e-06 M, the Cmax [1, 25] was 7e-06 M and the Cmax [1, 26] was 4.7e-06 M. For the same molecule, the Cmax [1, 27] was 4e-06 M, the Cmax [1, 28] was 1.2e-06 M and the Cmax [1, 29] was 3.3e-06 M. The Cmax [1, 30] was 3.2e-06 M, the Cmax [1, 31] was 3.9e-06 M and the Cmax [1, 32] was 3.9e-06 M. The Cmax [1, 33] was 3.9e-06 M, the Cmax [1, 34] was 3.7e-06 M and the Cmax [1, 35] was 3.2e-06 M. For the same molecule, the Cmax [1, 36] was 2.1e-06 M, the Cmax [1, 37] was 2.6e-06 M and the IC50 (MAO-A; rat brain homogenate, 5-HT 100 uM, 60 minutes pre-incubation at 37° C., read-out: IC50 for MAO-A inhibition) was 414 µM.

For `CNC(=O)Oc1ccc2c(c1)[C@H](N)CC2` [R-MCAI, Methyl-carbamic acid 3-R-amino-indan-5-yl ester hydrochloride], the “inhibition of acetylcholinesterase, in words” value (Recombinant human AChE) was “potent inhibitors”, the “kmax (unimolecular carbamoylation rate constant)” value (Recombinant human AChE; AChE, 37° C.) was 1.63 min⁻¹ and the half-life ([1]; both) was 8.09 h. The Cmax [1, 2] was 2.7e-07 M, the Cmax [1, 3] was 2.61e-07 M and the concentration at 12 h [1, 4] was 1.53e-07 M. It also gave a concentration at 12 h [1, 5] of 1.39e-07 M, an AUC [1, 6] of 62 ng·h/mL and an AUC [1, 7] of 121 ng·h/mL. The AUC [1, 8] was 172 ng·h/mL, the AUC [1, 9] was 191 ng·h/mL and the AUC [1, 10] was 171 ng·h/mL. The AUC [1, 11] was 144 ng·h/mL, the AUC [1, 12] was 213 ng·h/mL and the AUC [1, 13] was 86 ng·h/mL. It also gave an AUC(0-t) [1, 14] of 570 ng·h/mL, an AUC(0-t) [1, 15] of 733 ng·h/mL and an AUC(0-t) [1, 16] of 958 ng·h/mL. It also gave an AUC(0-t) [1, 17] of 672 ng·h/mL, an AUC(0-t) [1, 18] of 895 ng·h/mL and an AUC(0-t) [1, 19] of 964 ng·h/mL. For the same molecule, the AUC(0-t) [1, 20] was 186 ng·h/mL, the AUC(0-t) [1, 21] was 426 ng·h/mL and the Cmax [1, 22] was 1e-07 M. It also gave a Cmax [1, 23] of 2e-07 M, a Cmax [1, 24] of 3e-07 M and a Cmax [1, 25] of 3e-07 M. It also gave a Cmax [1, 26] of 3e-07 M, a Cmax [1, 27] of 3e-07 M and a Cmax [1, 28] of 4e-07 M. It also gave a Cmax [1, 29] of 2e-07 M, a Cmax [1, 30] of 2e-07 M and a Cmax [1, 31] of 2e-07 M. It also gave a Cmax [1, 32] of 3e-07 M, a Cmax [1, 33] of 2e-07 M and a Cmax [1, 34] of 4e-07 M. For the same molecule, the Cmax [1, 35] was 3e-07 M, the Cmax [1, 36] was 2e-07 M and the Cmax [1, 37] was 2e-07 M. The IC50 (MAO-A) was 32.2 µM.
